Experimental data taken from PMC8158775, “Structure–Activity Relationship Assessment of Sophorolipid Ester Derivatives against Model Bacteria Strains” (Molecules, 2021).
≈ marks a conversion by molar mass, not a printed value. Entries after “also recorded” stand apart in the source; their conditions may differ. Read-outs that look alike come from different tables or passages of the source.

Columns and labels:
[1] = system: Bacillus subtilis (ATCC 21332); assay: Minimum inhibitory concentration (microdilution); format: cell-based; settings: read-out: MIC B. subtilis
Protocol: (§1) Bacteria strains Staphylococcus aureus (ATCC 33807), Bacillus cereus (ATCC 4342), Bacillus subtilis (ATCC 21332), Listeria innocua (ATCC 33090), and Escherichia coli (ATCC 53323) were provided by Ravi Kane’s lab at Rensselaer Polytechnic Institute. Mueller–Hinton broth (MHB) was used for the Staphylococcus aureus culture, while tryptic soy broth (TSB) was used for the other strains. All strains were grown to the stationary phase for 24 h at 37 °C with agitation at 220 rpm. After overnight incubation, cultures were diluted to 5 × 10^6 CFU/mL prior to use.
(§2) The minimum inhibitory concentration (MIC) was determined using the microdilution technique. Modified sophorolipid (SL) derivatives were dissolved in DMSO to make 2 M stock solutions. A dilution series was made by diluting the stock solution to a range of concentrations from 200 µM to 4 µM and a final volume of 100 μL in 10% DMSO/phosphate-buffered saline (PBS) in each well of a 96-well plate. Bacterial inocula (100 μL, 5 × 10^6 CFU/mL) were added to each well, and the final DMSO concentration was 5%. Wells containing the same volumes of DMSO/PBS buffer and culture medium, with and without bacteria, were used as positive and negative controls, respectively. Streptomycin was used for comparison. The plate was then incubated with shaking for 16–30 h at 37 °C to ensure that cultures had reached stationary phase growth and the absorbance readings were recorded at a wavelength of 600 nm using an absorbance microplate reader. Absorbance data from 16–30 h were used to calculate the percent inhibition for each test condition. MIC was recorded as the lowest concentration of drug that inhibited more than 90% of bacterial growth. All assays were carried out in triplicate.

[2] = system: Bacillus cereus (ATCC 4342); assay: Minimum inhibitory concentration (microdilution); format: cell-based; settings: read-out: MIC B. cereus
Protocol: as §1, §2

[3] = system: Listeria innocua (ATCC 33090); assay: Minimum inhibitory concentration (microdilution); format: cell-based; settings: read-out: MIC L. innocua
Protocol: as §1, §2

[4] = system: Escherichia coli (ATCC 53323); assay: Minimum inhibitory concentration (microdilution); format: cell-based; settings: read-out: MIC E. coli
Protocol: as §1, §2

B. cereus cell membrane = assay: Dye leakage / membrane depolarization assay with diS-C3(5); format: cell-based, Bacillus cereus; settings: 40 μg/mL (58–60 μM), t = 60 min, diS-C3(5) probe; listed as LSL
Protocol: To probe the role of LSL and the SL-esters as membrane-active agents, dye leakage experiments were carried out. Polymyxin B, a well-known membrane-active agent, was used as a positive control. Polymyxin B is a cyclic peptide with long, hydrophobic tails that can insert into cell membranes causing cell lysis. First, time-course membrane-depolarizing studies were conducted (Figure 3A). […] Upon addition of B. cereus cells at 2 min, a rapid decay in fluorescence intensity was observed due to self-quenching caused by migration of the probe into membranes. Subsequent addition of the SL-esters at 4 min led to a sharp increase in the fluorescence signal, thus indicating enhanced permeability of the cell membrane driven by the presence of the SL derivative.
The disruption of bacterial membranes after treatment with LSL and SL-ester derivatives was tested using a fluorescence probe, diS-C3(5), which can be quenched by the electrically polarized membrane. B. Cereus grown to mid-log phase was adjusted to 2.5 × 10^6 CFU/mL in fresh MHB. […] Fluorescence data were recorded at 670 nm with excitation at 622 nm on Molecular Devices SPECTRAmax Plus 384 UV-VIS High Throughput Microplate Spectrophotometer and normalized against the negative control.

[5] = system: M1 activated macrophages (AMOs) from Raw 254.7 murine macrophages; assay: In vitro cytotoxicity study; format: cell-based; settings: for cytotoxicity ranking: comparison within SL series
From the text: A potential antimicrobial candidate must selectively kill pathogen cells without harming the host mammalian cells. To test the ability of SLs to effectively discriminate between bacteria and mammalian cells, a cytotoxicity assay was previously reported by our team. […] The therapeutic index (TI) is a parameter commonly used to determine potential drug selectivity. […] Generally, membrane-active agents are not considered for systemic administration directly, because of relatively low selectivity. Thus, designing suitable formulations and selecting suitable dose ranges are important in drug development.

[6] = system: Staphylococcus aureus (ATCC 33807); assay: Minimum inhibitory concentration (microdilution); format: cell-based; settings: read-out: MIC S. aureus
Protocol: as §1, §2

[7] = Bacillus subtilis, ATCC21332, incubation time 16 h, lowest concentration inhibiting more than 90% of bacterial growth
[8] = Bacillus cereus, ATCC4342, incubation time 16 h, lowest concentration inhibiting more than 90% of bacterial growth
[9] = Listeria innocua, ATCC33090, incubation time 30 h, lowest concentration inhibiting more than 90% of bacterial growth
[10] = Escherichia coli, ATCC53323, incubation time 16 h, lowest concentration inhibiting more than 90% of bacterial growth
[11] = Staphylococcus aureus, ATCC33807, incubation time 16 h, lowest concentration inhibiting more than 90% of bacterial growth
[12] = incubation time 16 h, lowest concentration inhibiting more than 90% of bacterial growth
[13] = 16 h incubation, procedure of ref 17
[14] = incubation time 30 h, lowest concentration inhibiting more than 90% of bacterial growth

Compound	MIC [1, 7]	MIC [2, 8]	MIC [3, 9]	MIC [4, 10]	MIC [6, 11]	also measured
CCOC(=O)CCCCCCC/C=C\CCCCCCC(C)OC1OC(COC(C)=O)C(O)C(O)C1OC1OC(COC(C)=O)C(O)C(O)C1O (stereo not shown) [ESL-(6′Ac, 6″Ac)]	> 200 µM	12 µM (≈ 8.82 µg/mL)	> 200 µM	> 200 µM		
CCOC(=O)CCCCCCC/C=C\CCCCCCC(C)OC1OC(COC(C)=O)C(O)C(O)C1OC1OC(CO)C(O)C(O)C1O (stereo not shown) [ESL-(6′Ac, 6″OH)]	25 µM (≈ 17.3 µg/mL)	25 µM (≈ 17.3 µg/mL)	25 µM (≈ 17.3 µg/mL)	> 200 µM		
CCOC(=O)CCCCCCC/C=C\CCCCCCC(C)OC1OC(CO)C(O)C(O)C1OC1OC(COC(C)=O)C(O)C(O)C1O (stereo not shown) [ESL-(6′OH, 6″Ac)]	25 µM (≈ 17.3 µg/mL)	25 µM (≈ 17.3 µg/mL)	25 µM (≈ 17.3 µg/mL)	> 200 µM		
CC(=O)OCC1OC2OC(C)CCCCCC/C=C\CCCCCCCC(=O)OC3C(COC(C)=O)OC(OC2C(O)C1O)C(O)C3O (stereo not shown) [Lactonic SL, reference compound]	12 µM (≈ 8.27 µg/mL)	25 µM (≈ 17.2 µg/mL)	50 µM (≈ 34.4 µg/mL)	> 200 µM	25 µM (≈ 17.2 µg/mL)	ability to enhance cell membrane permeability (endpoint fluorescence) (B. cereus cell membrane): non-significant ability to enhance cell membrane permeability; also recorded: failed to enhance membrane permeability; reduction in cell viability ([5]; at 50 µM, procedure of ref 17): roughly 50%; cytotoxicity ranking [5]: highest cytotoxicity; MIC [4, 12]: > 200 µM
CCCCOC(=O)CCCCCCC/C=C\CCCCCCC(C)OC1OC(CO)C(O)C(O)C1OC1OC(CO)C(O)C(O)C1O (stereo not shown) [SL-butyl ester]	12 µM (≈ 8.15 µg/mL)	12 µM (≈ 8.15 µg/mL)	12 µM (≈ 8.15 µg/mL)	> 200 µM	100 µM (≈ 67.9 µg/mL)	concentration up to which low to no cytotoxicity [5, 13]: 100 to 200 µM; MIC [6, 12]: 100 µM (≈ 67.9 µg/mL); MIC [1, 12]: 12 µM (≈ 8.15 µg/mL); MIC [2, 12]: 12 µM (≈ 8.15 µg/mL); MIC [3, 14]: 12 µM (≈ 8.15 µg/mL)
CCOC(=O)CCCCCCC/C=C\CCCCCCC(C)OC1OC(CO)C(O)C(O)C1OC1OC(CO)C(O)C(O)C1O (stereo not shown) [SL-ethyl ester]	50 µM (≈ 32.5 µg/mL)	50 µM (≈ 32.5 µg/mL)	50 µM (≈ 32.5 µg/mL)	> 200 µM	200 µM (≈ 130 µg/mL)	concentration up to which low to no cytotoxicity [5, 13]: 100 to 200 µM
CCCCCCOC(=O)CCCCCCC/C=C\CCCCCCC(C)OC1OC(CO)C(O)C(O)C1OC1OC(CO)C(O)C(O)C1O (stereo not shown) [SL-hexyl ester]	> 200 µM	> 200 µM	> 200 µM	> 200 µM	> 200 µM	MIC [6, 12]: > 200 µM; MIC [1, 12]: > 200 µM; MIC [2, 12]: > 200 µM; MIC [3, 14]: > 200 µM
COC(=O)CCCCCCC/C=C\CCCCCCC(C)OC1OC(CO)C(O)C(O)C1OC1OC(CO)C(O)C(O)C1O (stereo not shown) [SL-methyl ester]						cell reduction ([5]; 400 µM, 16 h incubation, procedure of ref 17): no significant cell reduction; cytotoxicity ranking [5]: lowest toxicity; MIC ([6]; Staphylococcus aureus, ATCC33807, 16 h): 200 µM (≈ 127 µg/mL); MIC [6, 12]: 200 µM (≈ 127 µg/mL); MIC ([1]; Bacillus subtilis, ATCC21332, 16 h): 50 µM (≈ 31.8 µg/mL); MIC [1, 12]: 50 µM (≈ 31.8 µg/mL); MIC ([2]; Bacillus cereus, ATCC4342, 16 h): 50 µM (≈ 31.8 µg/mL); MIC [2, 12]: 50 µM (≈ 31.8 µg/mL); MIC ([3]; Listeria innocua, ATCC33090, 30 h): 100 µM (≈ 63.7 µg/mL); MIC [3, 14]: 100 µM (≈ 63.7 µg/mL); MIC ([4]; Escherichia coli, ATCC53323, 16 h): > 200 µM
CCCCCOC(=O)CCCCCCC/C=C\CCCCCCC(C)OC1OC(CO)C(O)C(O)C1OC1OC(CO)C(O)C(O)C1O (stereo not shown) [SL-pentyl ester]	> 200 µM	12 µM (≈ 8.31 µg/mL)	12 µM (≈ 8.31 µg/mL)	> 200 µM	> 200 µM	
CCCOC(=O)CCCCCCC/C=C\CCCCCCC(C)OC1OC(CO)C(O)C(O)C1OC1OC(CO)C(O)C(O)C1O (stereo not shown) [SL-propyl ester]	25 µM (≈ 16.6 µg/mL)	25 µM (≈ 16.6 µg/mL)	25 µM (≈ 16.6 µg/mL)	> 200 µM	100 µM (≈ 66.5 µg/mL)	concentration up to which low to no cytotoxicity [5, 13]: 100 to 200 µM
[H]/N=C(/N)N[C@H]1[C@H](O)[C@@H](O)[C@H](O[C@@H]2O[C@@H](C)[C@](O)(C=O)[C@H]2O[C@@H]2O[C@@H](CO)[C@H](O)[C@@H](O)[C@@H]2NC)[C@@H](N/C(N)=N\[H])[C@@H]1O [Streptomycin, reference compound]	12 µM (≈ 6.98 µg/mL)	12 µM (≈ 6.98 µg/mL)	24 µM (≈ 14 µg/mL)	12 µM (≈ 6.98 µg/mL)	3 µM (≈ 1.74 µg/mL)	
